Measured values taken from patent US9695155B2, “Herbicidal substituted pyrimidinyloxy benzene compounds” (E. I. DU PONT DE NEMOURS AND COMPANY, priority 2013, dated 2017).

What was measured:
rice = assay: Test B flooded paddy test; format: in vivo, Oryza sativa; conditions: Flood, 250 g ai/ha; 0 to 100 scale where 0 is no effect and 100 is complete control
Outline: (§1)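 Evaluation is visual, against untreated controls, 13 to 15 days after treatment. Before treatment, plants reached the 2-leaf stage; pots were then flooded 3 cm deep, compound was added to the water, and that level was maintained. Ratings run 0 to 100, with 100 meaning complete control.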

wheat [1] = assay: Test A postemergence; format: in vivo, Triticum aestivum
Outline: (§2)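 Visual 0–100 rating (100 = complete control) taken about 10 d post-treatment relative to untreated checks. Preemergence: directed soil spray on sown loam/sand pots. Postemergence: seedlings 2–10 cm, 1–2 leaf. Non-phytotoxic solvent formulation with surfactant.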

barnyardgrass [2] = assay: Test A preemergence; format: in vivo, Echinochloa crus-galli
Outline: as §2

barnyardgrass [3] = assay: Test B flooded paddy test; format: in vivo, Echinochloa crus-galli; conditions: Flood, 250 g ai/ha; 0 to 100 scale where 0 is no effect and 100 is complete control
Outline: as §1

sedge, umbrella = assay: Test B flooded paddy test; format: in vivo, Cyperus difformis; conditions: Flood, 250 g ai/ha; 0 to 100 scale where 0 is no effect and 100 is complete control
Outline: as §1

morningglory [4] = assay: Test A preemergence; format: in vivo, Ipomoea spp.
Outline: as §2

velvetleaf [5] = assay: Test A preemergence; format: in vivo, Abutilon theophrasti
Outline: as §2

large (Lg) crabgrass [6] = assay: Test A postemergence; format: in vivo, Digitaria sanguinalis
Outline: as §2

giant foxtail [7] = assay: Test A postemergence; format: in vivo, Setaria faberii
Outline: as §2

giant foxtail [8] = assay: Test A preemergence; format: in vivo, Setaria faberii
Outline: as §2

barnyardgrass [9] = assay: Test A postemergence; format: in vivo, Echinochloa crus-galli
Outline: as §2

wheat [10] = assay: Test A preemergence; format: in vivo, Triticum aestivum
Outline: as §2

pigweed [11] = assay: Test A postemergence; format: in vivo, Amaranthus retroflexus
Outline: as §2

large (Lg) crabgrass [12] = assay: Test A preemergence; format: in vivo, Digitaria sanguinalis
Outline: as §2

corn [13] = assay: Test A postemergence; format: in vivo, Zea mays
Outline: as §2

velvetleaf [14] = assay: Test A postemergence; format: in vivo, Abutilon theophrasti
Outline: as §2

morningglory [15] = assay: Test A postemergence; format: in vivo, Ipomoea spp.
Outline: as §2

Heteranthera limosa = assay: Test B flooded paddy test; format: in vivo; conditions: Flood, 250 g ai/ha; 0 to 100 scale where 0 is no effect and 100 is complete control
Outline: as §1

pigweed [16] = assay: Test A preemergence; format: in vivo, Amaranthus retroflexus
Outline: as §2

corn [17] = assay: Test A preemergence; format: in vivo, Zea mays
Outline: as §2

[18] = 125 g ai/ha, 0 to 100 scale where 0 is no effect and 100 is complete control
[19] = 500 g ai/ha, 0 to 100 scale where 0 is no effect and 100 is complete control
[20] = 1000 g ai/ha, 0 to 100 scale, 0 no effect, 100 complete control
[21] = 1000 g ai/ha, 0 to 100 scale, 0 no effect, 100 complete control, approx. 10 days

SMILES: COc1cnc(Oc2cccc(C#N)c2-n2cc(Br)cn2)nc1 [Compound 218]
- Plant response rating, Rice (rice): 0
- Wheat plant response rating (wheat [1]; [18]): 0
- Plant response rating, Wheat (wheat [1]; [19]): 20
- Barnyardgrass plant response rating (0 to 100 scale, 0 is no effect, 100 is complete control) (barnyardgrass [2]; 125 g ai/ha): 10
- Barnyardgrass plant response rating (barnyardgrass [2]; [19]): 70
- Plant response rating, Barnyardgrass (barnyardgrass [3]): 0
- Plant response rating, Sedge, Umbrella (sedge, umbrella): 40
- Morningglory plant response rating (0 to 100 scale) (morningglory [4]; 125 g ai/ha): 0
- Morningglory plant response rating (morningglory [4]; [19]): 10
- Velvetleaf plant response rating (0 to 100 scale) (velvetleaf [5]; 125 g ai/ha): 10
- Velvetleaf plant response rating (velvetleaf [5]; [19]): 50
- Crabgrass, Large plant response rating (large (Lg) crabgrass [6]; [18]): 50
- Plant response rating, Crabgrass, Large (large (Lg) crabgrass [6]; [19]): 70
- Foxtail, Giant plant response rating (giant foxtail [7]; [18]): 20
- Plant response rating, Foxtail, Giant (giant foxtail [7]; [19]): 70
- Foxtail, Giant plant response rating (0 to 100 scale) (giant foxtail [8]; 125 g ai/ha): 20
- Foxtail, Giant plant response rating (giant foxtail [8]; [19]): 100
- Barnyardgrass plant response rating (barnyardgrass [9]; [18]): 30
- Plant response rating, Barnyardgrass (barnyardgrass [9]; [19]): 70
- Wheat plant response rating (0 to 100 scale) (wheat [10]; 125 g ai/ha): 0
- Wheat plant response rating (wheat [10]; [19]): 0
- Pigweed plant response rating (pigweed [11]; [18]): 90
- Plant response rating, Pigweed (pigweed [11]; [19]): 100
- Crabgrass, Large plant response rating (0 to 100 scale) (large (Lg) crabgrass [12]; 125 g ai/ha): 80
- Crabgrass, Large plant response rating (large (Lg) crabgrass [12]; [19]): 100
- Corn plant response rating (corn [13]; [18]): 0
- Plant response rating, Corn (corn [13]; [19]): 40
- Velvetleaf plant response rating (velvetleaf [14]; [18]): 30
- Plant response rating, Velvetleaf (velvetleaf [14]; [19]): 100
- Morningglory plant response rating (morningglory [15]; [18]): 70
- Plant response rating, Morningglory (morningglory [15]; [19]): 90
- Plant response rating, Ducksalad (Heteranthera limosa): 50
- Pigweed plant response rating (0 to 100 scale) (pigweed [16]; 125 g ai/ha): 100
- Pigweed plant response rating (pigweed [16]; [19]): 100
- Corn plant response rating (0 to 100 scale) (corn [17]; 125 g ai/ha): 0
- Corn plant response rating (corn [17]; [19]): 0

SMILES: Clc1cnc(Oc2ccccc2-n2ccnn2)nc1 [Compound 217]
- Plant response rating, Rice (rice): 0
- Plant response rating, Wheat (wheat [1]; [20]): 20
- Barnyardgrass plant response rating (barnyardgrass [2]; [21]): 70
- Plant response rating, Barnyardgrass (barnyardgrass [3]): 0
- Plant response rating, Sedge, Umbrella (sedge, umbrella): 0
- Morningglory plant response rating (morningglory [4]; [21]): 40
- Velvetleaf plant response rating (velvetleaf [5]; [21]): 100
- Plant response rating, Crabgrass, Large (large (Lg) crabgrass [6]; [20]): 60
- Plant response rating, Foxtail, Giant (giant foxtail [7]; [20]): 50
- Foxtail, Giant plant response rating (giant foxtail [8]; [21]): 90
- Plant response rating, Barnyardgrass (barnyardgrass [9]; [20]): 30
- Wheat plant response rating (wheat [10]; [21]): 0
- Plant response rating, Pigweed (pigweed [11]; [20]): 100
- Crabgrass, Large plant response rating (large (Lg) crabgrass [12]; [21]): 100
- Plant response rating, Corn (corn [13]; [20]): 0
- Plant response rating, Velvetleaf (velvetleaf [14]; [20]): 100
- Plant response rating, Morningglory (morningglory [15]; [20]): 90
- Plant response rating, Ducksalad (Heteranthera limosa): 0
- Pigweed plant response rating (pigweed [16]; [21]): 100
- Corn plant response rating (corn [17]; [21]): 0
